Experiments:
Assay in all cases: NCI-60 single-dose screen
Type in all cases: cell-based
HCC-2998 = details: Homo sapiens, single dose 10 µM, '-' = no inhibition, read-out: % Growth Inhibition
In short: (§1)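 NCI Developmental Therapeutics Program screen across 60 human cancer cell lines from nine tumor types; compounds tested at a single dose of 10 μM.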

DU-145 = details: Homo sapiens, single dose 10 µM, '-' = no inhibition, read-out: % Growth Inhibition
In short: as §1

LOX IMVI = details: Homo sapiens, single dose 10 µM, '-' = no inhibition, read-out: % Growth Inhibition
In short: as §1

IGROV1 = details: Homo sapiens, IGROV-1, single dose 10 µM, '-' = no inhibition, read-out: % Growth Inhibition
In short: as §1

T-47D = details: Homo sapiens, T47D, single dose 10 µM, '-' = no inhibition, read-out: % Growth Inhibition
In short: as §1

PC-3 = details: Homo sapiens, single dose 10 µM, '-' = no inhibition, read-out: % Growth Inhibition
In short: as §1

NCI-H522 = details: Homo sapiens, single dose 10 µM, '-' = no inhibition, read-out: % Growth Inhibition
In short: as §1

NCI/ADR-RES = details: Homo sapiens, single dose 10 µM, '-' = no inhibition, read-out: % Growth Inhibition
In short: as §1

NCI-H460 = details: Homo sapiens, single dose 10 µM, '-' = no inhibition, read-out: % Growth Inhibition
In short: as §1

MCF7 = details: Homo sapiens, single dose 10 µM, '-' = no inhibition, read-out: % Growth Inhibition
In short: as §1

HOP-62 = details: Homo sapiens, single dose 10 µM, '-' = no inhibition, read-out: % Growth Inhibition
In short: as §1

OVCAR-4 = details: Homo sapiens, single dose 10 µM, '-' = no inhibition, read-out: % Growth Inhibition
In short: as §1

SK-OV-3 = details: Homo sapiens, single dose 10 µM, '-' = no inhibition, read-out: % Growth Inhibition
In short: as §1

HCT-116 = details: Homo sapiens, single dose 10 µM, '-' = no inhibition, read-out: % Growth Inhibition
In short: as §1

ACHN 1 = details: Homo sapiens, single dose 10 µM, '-' = no inhibition, read-out: % Growth Inhibition
In short: as §1

SF-539 = details: Homo sapiens, single dose 10 µM, '-' = no inhibition, read-out: % Growth Inhibition
In short: as §1

SF-295 = details: Homo sapiens, single dose 10 µM, '-' = no inhibition, read-out: % Growth Inhibition
In short: as §1

CCRF-CEM = details: Homo sapiens, single dose 10 µM, '-' = no inhibition, read-out: % Growth Inhibition
In short: as §1

UO-31 = details: Homo sapiens, single dose 10 µM, '-' = no inhibition, read-out: % Growth Inhibition
In short: as §1

HOP-92 = details: Homo sapiens, single dose 10 µM, '-' = no inhibition, read-out: % Growth Inhibition
In short: as §1

SW-620 = details: Homo sapiens, single dose 10 µM, '-' = no inhibition, read-out: % Growth Inhibition
In short: as §1

KM12 = details: Homo sapiens, single dose 10 µM, '-' = no inhibition, read-out: % Growth Inhibition
In short: as §1

SK-MEL-5 = details: Homo sapiens, single dose 10 µM, '-' = no inhibition, read-out: % Growth Inhibition
In short: as §1

SNB-19 = details: Homo sapiens, single dose 10 µM, '-' = no inhibition, read-out: % Growth Inhibition
In short: as §1

SNB-75 = details: Homo sapiens, single dose 10 µM, '-' = no inhibition, read-out: % Growth Inhibition
In short: as §1

NCI-H23 = details: Homo sapiens, single dose 10 µM, '-' = no inhibition, read-out: % Growth Inhibition
In short: as §1

SR = details: Homo sapiens, single dose 10 µM, '-' = no inhibition, read-out: % Growth Inhibition
In short: as §1

SF-268 = details: Homo sapiens, single dose 10 µM, '-' = no inhibition, read-out: % Growth Inhibition
In short: as §1

M14 = details: Homo sapiens, single dose 10 µM, '-' = no inhibition, read-out: % Growth Inhibition
In short: as §1

HCT-15 = details: Homo sapiens, single dose 10 µM, '-' = no inhibition, read-out: % Growth Inhibition
In short: as §1

HS 578T = details: Homo sapiens, single dose 10 µM, '-' = no inhibition, read-out: % Growth Inhibition
In short: as §1

EKVX = details: Homo sapiens, single dose 10 µM, '-' = no inhibition, read-out: % Growth Inhibition
In short: as §1

A549/ATCC = details: Homo sapiens, single dose 10 µM, '-' = no inhibition, read-out: % Growth Inhibition
In short: as §1

CAKI-1 = details: Homo sapiens, single dose 10 µM, '-' = no inhibition, read-out: % Growth Inhibition
In short: as §1

MDA-MB-468 = details: Homo sapiens, single dose 10 µM, '-' = no inhibition, read-out: % Growth Inhibition
In short: as §1

SK-MEL-28 = details: Homo sapiens, single dose 10 µM, '-' = no inhibition, read-out: % Growth Inhibition
In short: as §1

RXF 393 = details: Homo sapiens, single dose 10 µM, '-' = no inhibition, read-out: % Growth Inhibition
In short: as §1

RPMI-8226 = details: Homo sapiens, single dose 10 µM, '-' = no inhibition, read-out: % Growth Inhibition
In short: as §1

UACC-62 = details: Homo sapiens, single dose 10 µM, '-' = no inhibition, read-out: % Growth Inhibition
In short: as §1

OVCAR-3 = details: Homo sapiens, single dose 10 µM, '-' = no inhibition, read-out: % Growth Inhibition
In short: as §1

786-0 = details: Homo sapiens, single dose 10 µM, '-' = no inhibition, read-out: % Growth Inhibition
In short: as §1

OVCAR-5 = details: Homo sapiens, single dose 10 µM, '-' = no inhibition, read-out: % Growth Inhibition
In short: as §1

MALME-3M = details: Homo sapiens, single dose 10 µM, '-' = no inhibition, read-out: % Growth Inhibition
In short: as §1

A498 = details: Homo sapiens, single dose 10 µM, '-' = no inhibition, read-out: % Growth Inhibition
In short: as §1

SK-MEL-2 = details: Homo sapiens, single dose 10 µM, '-' = no inhibition, read-out: % Growth Inhibition
In short: as §1

U251 = details: Homo sapiens, U-251, single dose 10 µM, '-' = no inhibition, read-out: % Growth Inhibition
In short: as §1

COLO 205 = details: Homo sapiens, single dose 10 µM, '-' = no inhibition, read-out: % Growth Inhibition
In short: as §1

NCI-H322M = details: Homo sapiens, single dose 10 µM, '-' = no inhibition, read-out: % Growth Inhibition
In short: as §1

In the case of `COc1ccc(-c2cc(-c3cccc(OC)c3)nc(SC)n2)cc1` [Compound 16, 6-(3-Methoxyphenyl)-4-(4-methoxyphenyl)-2-(methylthio)pyrimidine], the inhibition at 10 µM (HCC-2998) is reported as under 0%, the inhibition at 10 µM (DU-145) is reported as 6.56% and the inhibition at 10 µM (LOX IMVI) is reported as 0.51%. It also gave an inhibition at 10 µM (IGROV1) of under 0%, an inhibition at 10 µM (T-47D) of 22.2% and an inhibition at 10 µM (PC-3) of 16.6%. The inhibition at 10 µM (NCI-H522) was 14.1%, the inhibition at 10 µM (NCI/ADR-RES) was 11.6% and the inhibition at 10 µM (NCI-H460) was 1.75%. For the same molecule, the inhibition at 10 µM (MCF7) was 11.3%, the inhibition at 10 µM (HOP-62) was 1.53% and the inhibition at 10 µM (OVCAR-4) was 8.29%. For the same molecule, the inhibition at 10 µM (SK-OV-3) was 13.7%, the inhibition at 10 µM (HCT-116) was 17.3% and the inhibition at 10 µM (ACHN 1) was under 0%. The inhibition at 10 µM (SF-539) was under 0%, the inhibition at 10 µM (SF-295) was 4.05% and the inhibition at 10 µM (CCRF-CEM) was 8.85%. The inhibition at 10 µM (UO-31) was 20%, the inhibition at 10 µM (HOP-92) was 1.87% and the inhibition at 10 µM (SW-620) was 1.89%. It also gave an inhibition at 10 µM (KM12) of 6.2%, an inhibition at 10 µM (SK-MEL-5) of 6.46% and an inhibition at 10 µM (SNB-19) of under 0%. For the same molecule, the inhibition at 10 µM (SNB-75) was under 0%, the inhibition at 10 µM (NCI-H23) was 2.58% and the inhibition at 10 µM (SR) was 27.7%. The inhibition at 10 µM (SF-268) was 15.7%, the inhibition at 10 µM (M14) was under 0% and the inhibition at 10 µM (HCT-15) was 19.5%. For the same molecule, the inhibition at 10 µM (HS 578T) was 5.45%, the inhibition at 10 µM (EKVX) was 21.7% and the inhibition at 10 µM (A549/ATCC) was 13%. For the same molecule, the inhibition at 10 µM (CAKI-1) was 20.8%, the inhibition at 10 µM (MDA-MB-468) was 17.4% and the inhibition at 10 µM (SK-MEL-28) was under 0%. For the same molecule, the inhibition at 10 µM (RXF 393) was 11.6%, the inhibition at 10 µM (RPMI-8226) was 3.81% and the inhibition at 10 µM (UACC-62) was 23.9%. For the same molecule, the inhibition at 10 µM (OVCAR-3) was under 0%, the inhibition at 10 µM (786-0) was under 0% and the inhibition at 10 µM (OVCAR-5) was under 0%. It also gave an inhibition at 10 µM (MALME-3M) of under 0%, an inhibition at 10 µM (A498) of under 0% and an inhibition at 10 µM (SK-MEL-2) of 2.91%. For the same molecule, the inhibition at 10 µM (U251) was 10.7%, the inhibition at 10 µM (COLO 205) was under 0% and the inhibition at 10 µM (NCI-H322M) was under 0%.

In the case of `CCCSc1nc(-c2ccc(OC)cc2)cc(-c2cccc(OC)c2)n1` [Compound 18, 6-(3-Methoxyphenyl)-4-(4-methoxyphenyl)-2-(propylthio)pyrimidine], the inhibition at 10 µM (HCC-2998) is reported as under 0%, the inhibition at 10 µM (DU-145) is reported as under 0% and the inhibition at 10 µM (LOX IMVI) is reported as under 0%. The inhibition at 10 µM (IGROV1) was under 0%, the inhibition at 10 µM (T-47D) was 13.8% and the inhibition at 10 µM (PC-3) was under 0%. For the same molecule, the inhibition at 10 µM (NCI-H522) was under 0%, the inhibition at 10 µM (NCI/ADR-RES) was under 0% and the inhibition at 10 µM (NCI-H460) was under 0%. It also gave an inhibition at 10 µM (MCF7) of 17.3%, an inhibition at 10 µM (HOP-62) of under 0% and an inhibition at 10 µM (OVCAR-4) of 3.94%. The inhibition at 10 µM (SK-OV-3) was under 0%, the inhibition at 10 µM (HCT-116) was 3.37% and the inhibition at 10 µM (ACHN 1) was under 0%. It also gave an inhibition at 10 µM (SF-539) of under 0%, an inhibition at 10 µM (SF-295) of under 0% and an inhibition at 10 µM (CCRF-CEM) of under 0%. For the same molecule, the inhibition at 10 µM (UO-31) was under 0%, the inhibition at 10 µM (HOP-92) was under 0% and the inhibition at 10 µM (SW-620) was under 0%. For the same molecule, the inhibition at 10 µM (KM12) was 1.47%, the inhibition at 10 µM (SK-MEL-5) was 3.1% and the inhibition at 10 µM (SNB-19) was under 0%. The inhibition at 10 µM (SNB-75) was under 0%, the inhibition at 10 µM (NCI-H23) was under 0% and the inhibition at 10 µM (SR) was 14.9%. It also gave an inhibition at 10 µM (SF-268) of under 0%, an inhibition at 10 µM (M14) of 9.08% and an inhibition at 10 µM (HCT-15) of 8.49%. For the same molecule, the inhibition at 10 µM (HS 578T) was under 0%, the inhibition at 10 µM (EKVX) was under 0% and the inhibition at 10 µM (A549/ATCC) was 7.77%. For the same molecule, the inhibition at 10 µM (CAKI-1) was 4%, the inhibition at 10 µM (MDA-MB-468) was under 0% and the inhibition at 10 µM (SK-MEL-28) was under 0%. The inhibition at 10 µM (RXF 393) was under 0%, the inhibition at 10 µM (RPMI-8226) was under 0% and the inhibition at 10 µM (UACC-62) was under 0%. It also gave an inhibition at 10 µM (OVCAR-3) of under 0%, an inhibition at 10 µM (786-0) of under 0% and an inhibition at 10 µM (OVCAR-5) of under 0%. It also gave an inhibition at 10 µM (MALME-3M) of under 0%, an inhibition at 10 µM (A498) of under 0% and an inhibition at 10 µM (SK-MEL-2) of 3.6%. It also gave an inhibition at 10 µM (U251) of under 0%, an inhibition at 10 µM (COLO 205) of 0.86% and an inhibition at 10 µM (NCI-H322M) of under 0%.

Source: article PMC11576293, “New series of 4,6-diaryl pyrimidines: facile synthesis and antiproliferative activity as dual EGFR/VEGFR-2 inhibitors” (Frontiers in Chemistry, 2024)
